Results on 17 compounds are retold here after patent US7087757B2, “Phenyl-substituted imidazopyridines” (Ortho-McNeil Pharmaceutical, Inc., priority 2000, dated 2006).

The target of the assay is T1, human histamine H3 receptor (Homo sapiens, UniProt Q9Y5N1).
T1 construct: One microgram supercoiled H3 receptor cDNA was added to the cells and mixed; expressed in transfected cells; membranes prepared from cell pellets
T1 sequence (Q9Y5N1 whole entry): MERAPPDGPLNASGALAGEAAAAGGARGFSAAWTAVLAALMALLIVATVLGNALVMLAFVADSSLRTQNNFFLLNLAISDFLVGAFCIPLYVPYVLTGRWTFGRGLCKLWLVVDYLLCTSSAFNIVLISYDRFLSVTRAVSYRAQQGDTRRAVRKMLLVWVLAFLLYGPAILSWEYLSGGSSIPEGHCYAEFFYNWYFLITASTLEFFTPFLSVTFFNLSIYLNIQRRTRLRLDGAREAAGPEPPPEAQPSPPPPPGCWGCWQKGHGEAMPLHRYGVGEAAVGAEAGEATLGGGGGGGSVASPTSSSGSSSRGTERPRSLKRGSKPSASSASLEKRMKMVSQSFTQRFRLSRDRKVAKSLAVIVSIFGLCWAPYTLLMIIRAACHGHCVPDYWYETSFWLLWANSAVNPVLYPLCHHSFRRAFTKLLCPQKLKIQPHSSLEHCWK
The assay is described as follows: [3H]-N-methylhistamine binding. Particulars: membranes of histamine H3 receptor-expressing SK-N-MC cells; 0.8 nM [3H]-N-methylhistamine; 45 minutes at 25° C.; Ki calculated with KD of 800 pM. Here is the method:
Screening using the human receptor is particularly important for the identification of new therapies for the treatment of human disease.
A 10 cm tissue culture dish with a confluent monolayer of SK-N-MC cells was split two days prior to transfection. Using sterile technique the media was removed and the cells were detached from the dish by the addition of trypsin. One fifth of the cells were then placed onto a new 10 cm dish. Cells were grown in a 37° C. incubator with 5% CO2 in Minimal Essential Media Eagle with 10% Fetal Bovine Serum. After two days cells were approximately 80% confluent. These were removed from the dish with trypsin and pelleted in a clinical centrifuge. […] One microgram supercoiled H3 receptor cDNA was added to the cells and mixed. The voltage for the electroporation was set at 0.25 kV, the capacitance is set at 960 μF.
After electroporation the cells were diluted into 10 mL complete media and plated onto four 10 cm dishes. Due to the variability in the efficiency of electroporation, four different concentrations of cells were plated. The ratios used were: 1:20, 1:10, and 1:5, with the remainder of the cells being added to the fourth dish. The cells were allowed to recover for 24 hours before adding the selection media (complete media with 600 μg/ml G418). After 10 days dishes were analyzed for surviving colonies of cells. Dishes with well-isolated colonies were used. Cells from individual colonies were isolated and tested. SK-N-MC cells were used because they give efficient coupling for inhibition of adenylate cyclase. The clones that gave the most robust inhibition of adenylate cyclase in response to histamine were used for further study.
Cell pellets from histamine H3 receptor-expressing SK-N-MC cells were homogenized in 20 mM Tris HCl/0.5 mM EDTA. Supernatants from a 800 g spin were collected, reccentrifuged at 30,000 g for 30 minutes. Pellets were rehomogenized in 50 mM Tris/5 mM EDTA (pH 7.4). Membranes were incubated with 0.8 nM [^3H]-N-methylhistamine plus/minus test compounds for 45 minutes at 25° C. and harvested by rapid filtration over GF/C glass fiber filters (pretreated with 0.3% polyethylenimine) followed by four washes with ice cold buffer. Filters were dried, added to 4 mL scintillation cocktail and then counted on a liquid scintillation counter.
By Ki is commonly meant a dissociation constant, usually derived from enzyme kinetics or from competition with a known ligand. Regarding `Cc1ccn2cc(-c3ccc(OCCCN4CCCCCC4)cc3)nc2c1` [Example 19], the Ki is 2 nM.

`CCN(CC)CCOC(=O)c1ccc(-c2cn3cccc(C)c3n2)cc1` [Example 3, 4-(8-Methyl-imidazo[1,2-a]pyridin-2-yl)-benzoic acid 2-diethylamino-ethyl ester]: the Ki was 20 nM. Under `CCCNCC(O)COc1ccc(-c2cn3cccc(C)c3n2)cc1` (centres unmarked) [Example 46, 2-[4-(2-hydroxy-3-propylaminopropoxy)phenyl]-8-methylimidazo[1,2-a]pyridine] stands 1000 nM; under `Cc1cc(OCCCN2CCCCC2)ccc1-c1cn2c(n1)CC(C)CC2` (centres unmarked) [Example 17, 7-Methyl-2-[2-methyl-4-(3-piperidin-1-yl-propoxy)-phenyl]-5,6,7,8-tetrahydro-imidazo[1,2-a]pyridine], 3.2 nM. The figure for `CCN(CC)CCNc1ccc(-c2cn3cccc(C)c3n2)cc1` [Example 7, N,N-Diethyl-N′-[4-(8-methyl-imidazo[1,2-a]pyridin-2-yl)-phenyl]-ethane-1,2-diamine] is 4 nM; for `Cc1ccn2cc(-c3ccc(OCCCN4CCCCC4)cc3F)nc2c1` [Example 20, 2-(4-Piperidinopropoxy-2-fluorophenyl)-7-methylimidazo[1,2-a]pyridine] it is 10 nM; for `Cc1ccn2cc(-c3ccc(OCCCN4CCCCCC4)cc3F)nc2c1` [Example 21] it is 15 nM.

For the compound `COc1cc(-c2cn3ccc(C)cc3n2)ccc1OCCCN1CCCC1` [Example 13, 2-[3-Methoxy-4-(3-pyrrolidin-1-yl-propoxy)-phenyl]-7-methyl-imidazo[1,2-a]pyridine], the inhibition constant Ki is 63 nM. Under `Cc1ccn2cc(-c3ccc(C#CCCN4CCCCCC4)cc3)nc2c1` [Example 35] stands 50 nM; under `Cc1cccn2cc(-c3ccc(OCCCN4CCN(CCc5ccccc5)CC4)cc3)nc12` [Example 45, 2-[4-[3-(4-Phenethylpiperazino)propoxy]phenyl]-8-methylimidazo[1,2-a]pyridine], 500 nM. Under `Cc1cccn2cc(-c3ccc(NC(=O)CN4CCCC4)cc3)nc12` [Example 4, N-[4-(8-Methyl-imidazo[1,2-a]pyridin-2-yl)-phenyl]-2-pyrrolidin-1-yl-acetamide] stands 70 nM; under `Cc1cccn2cc(-c3ccc(C(=O)OCCN(C)C)cc3)nc12` [Example 2, 4-(8-Methyl-imidazo[1,2-a]pyridin-2-yl)-benzoic acid 2-dimethylamino-ethyl ester], 89 nM. The figure for `Cc1ccn2cc(-c3ccc(OCCCN4CCCCCC4)cc3C)nc2c1` [Example 24] is 0.5 nM; for `COc1cc(-c2cn3ccc(C)cc3n2)ccc1OCCCN1CCCCC1` [Example 26, 2-(4-Piperidinopropoxy-3-methoxyphenyl)-7-methylimidazo[1,2-a]pyridine] it is 159 nM; for `Cc1cc(-c2cn3ccccc3n2)ccc1OCCCN1CCCCC1` [Example 12, 2-(4-Piperidinopropoxy-3-methylphenyl)imidazo[1,2-a]pyridine] it is 21 nM. For the compound `CCN(CC)CCC(=O)Nc1ccc(-c2cn3cccc(C)c3n2)cc1` [Example 6, 3-Diethylamino-N-[4-(8-methyl-imidazo[1,2-a]pyridin-2-yl)-phenyl]-propionamide], the Ki is 55 nM.

Consider `Cc1ccn2cc(-c3ccc(CCCCN4CCCC4)cc3)nc2c1` [Example 37, 2-[4-[4-Pyrrolidinobutyl]phenyl]-7-methylimidazo[1,2-a]pyridine], for which the Ki was 10 nM.
